These results are taken from patent US20250177362A1, “HETEROCYCLIC GLP-1 AGONISTS” (Gasherbrum Bio, Inc., priority 2022, published 2025).

The term EC50 denotes the concentration at which the effect is half-maximal. A higher EC50 goes with a less potent agent.

T1 sequence (P43220 24-463, species assumed): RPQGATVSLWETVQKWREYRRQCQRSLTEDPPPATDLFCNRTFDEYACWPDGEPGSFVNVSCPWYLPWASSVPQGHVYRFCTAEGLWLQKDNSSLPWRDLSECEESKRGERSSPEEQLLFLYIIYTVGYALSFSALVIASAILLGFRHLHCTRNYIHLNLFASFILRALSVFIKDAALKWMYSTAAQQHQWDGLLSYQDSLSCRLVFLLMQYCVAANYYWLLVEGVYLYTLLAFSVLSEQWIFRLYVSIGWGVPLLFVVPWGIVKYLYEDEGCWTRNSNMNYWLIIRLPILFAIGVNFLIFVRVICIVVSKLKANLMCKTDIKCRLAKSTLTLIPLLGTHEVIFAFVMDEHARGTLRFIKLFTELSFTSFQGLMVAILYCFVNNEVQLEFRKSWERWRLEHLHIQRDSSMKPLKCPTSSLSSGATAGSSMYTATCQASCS

The experiment has as its target T1, GLP-1 Receptor (Homo sapiens, UniProt P43220).
T1 construct: host or cells: HEK293/CRE-Luc (HEK293/GLPIR/CRE-LUC)
In words: GLP-1R agonist cAMP stimulation assay. The settings on record: HEK293/CRE-Luc cell line stably expressing the GLP-1 Receptor; 30 min incubation; cAMP dynamic 2 Kit (Cisbio). It is filed as cell-based. The method, then: Activation of GLP-1 receptor is known to stimulate cyclic AMP (cAMP) production in cells which indicates primary coupling to the Gas subunit of the G protein heterotrimeric complex.
To optimize functional activity directed toward Gas coupling, a HEK293/CRE-Luc cell line developed by HDB stably expressing the GLP-1 Receptor was used. 200× concentration of compound working solutions were prepared (Agilent Technologies Bravo) with ½ log serial dilution in 384-well Echo LDV plate (Labcyte, Cat #LP-0200). 50 nL/well 200× concentration of compound working solutions were moved to 384-well white low volume plate (Greiner, Cat #784075) using Labcyte ECHO550. 1×10^5 cells/mL HEK293/GLPIR/CRE-LUC (HD Biosciences) cell suspensions prepared with assay buffer [DPBS containing 0.5 mM IBMX (Sigma, Cat #15879) and 0.10% BSA (GENVIEW, Cat #FA016-100g)], 10 μL cell suspensions were added to each well of previous generated assay plate which already contains 50 nL compound at 200× concentration using ThermoFisher Multidrop Combi (1000 cells/well). Seal the plate and incubate at 37° C. with 5% CO2 for 30 min.
After incubation the cAMP assay signal was generated using cAMP dynamic 2 Kit (Cisbio). 5 μL cAMP-d2 working solution was added to each well, followed with 5 μL Anti-cAMP antibody-cryptate working solution added to each well using ThermoFisher Multidrop Combi. Incubate at room temperature for 1 hour protected from light. Read the fluorescence at 665 and 615 nm with Reader PerkinElmer EnVision.
In turn, `C[C@]1(c2ccc(Cl)cc2F)Oc2cccc(C3CCN(Cc4ncc(-c5nnc(C(=O)NC6CC6)[nH]5)cc4CC4(C#N)CC4)CC3)c2O1` [E-5] gave an EC50 below 1 nM. In the case of `COCCNC(=O)c1cnc(CN2CCC(c3cccc4c3O[C@@](C)(c3ccc(Cl)cc3F)O4)CC2)c(CC2(C#N)CC2)c1` [D-3] it was 1 to 100 nM; in that of `C[C@]1(c2ccc(Cl)cc2F)Oc2cccc(C3CCC(Cc4ncc(-c5nnc(C(N)=O)[nH]5)cc4CC4(C#N)CC4)CC3)c2O1` (some centres unmarked) [B-1], below 1 nM; in that of `C[C@]1(c2ccc(Cl)cc2F)Oc2cccc(C3CCN(Cc4ncc(-c5nnc(C(F)(F)F)[nH]5)cc4N4CCC(O)C4)CC3)c2O1` (stereo partly drawn) [F-7, 1-[2-({4-[(2S)-2-(4-chloro-2-fluorophenyl)-2-methyl-2H-1,3-benzodioxol-4-yl]piperidin-1-yl}methyl)-5-[5-(trifluoromethyl)-4H-1,2,4-triazol-3-yl]pyridin-3-yl]pyrrolidin-3-ol], 1 to 100 nM. In the case of `C[C@]1(c2ccc(Cl)cc2F)Oc2cccc(C3CCN(Cc4nnc(-c5nnc(C(F)(F)F)[nH]5)cc4N4CCC(O)C4)CC3)c2O1` (stereo partly drawn) [F-15, 1-(3-((4-((S)-2-(4-chloro-2-fluorophenyl)-2-methylbenzo[d][1,3]dioxol-4-yl)piperidin-1-yl)methyl)-6-(5-(trifluoromethyl)-4H-1,2,4-triazol-3-yl)pyridazin-4-yl)pyrrolidin-3-ol] it was 1 to 100 nM; in that of `CNC(=O)c1cnc(CN2CCC(c3cccc4c3O[C@@](C)(c3ccc(Cl)cc3F)O4)CC2)c(CC2(C#N)CC2)c1` [D-4], 1 to 100 nM.

In the case of `COCCc1cc(-c2nnc(C(=O)O)[nH]2)cnc1CN1CCC(c2cccc3c2O[C@@](C)(c2ccc(Cl)cc2F)O3)CC1` [E-11], the EC50 was above 100 nM. For the molecule `COCCNC(=O)c1nnc(-c2cnc(CN3CCC(c4cccc5c4O[C@@](C)(c4ccc(Cl)cc4F)O5)CC3)c(CC3(C#N)CC3)c2)[nH]1` [E-3], the EC50 was below 1 nM. Then `Cc1cc(-c2noc(-c3cccnc3)n2)cnc1CN1CCC(c2cccc(OCc3ccc(Cl)cc3F)n2)CC1` [E-12], with above 100 nM.

For `Cc1cc(-c2nnc(C3CCCOC3)[nH]2)cnc1CN1CCC(c2cccc3c2O[C@@](C)(c2ccc(Cl)cc2F)O3)CC1` (some centres unmarked) [E-10], the EC50 was above 100 nM.

Regarding `COc1cc(-c2nnn[nH]2)cnc1CN1CCC(c2cccc3c2OC(C)(c2ccc(Cl)cc2F)O3)CC1` (centres unmarked) [F-20, 2-((4-(2-(4-chloro-2-fluorophenyl)-2-methylbenzo[d][1,3]dioxol-4-yl)piperidin-1-yl)methyl)-3-methoxy-5-(1H-tetrazol-5-yl)pyridine], the EC50 is above 100 nM.
